# Where two headings read alike, the source gives them in different places. Marks after values point to notes of the source that are not given here.
# Tests used:
# [1] = system: AAMU-Ab; experiment: Competitive antigen ELISA, cross-reactivity of AAMU-Ab; assay type: binding, rabbit; details: for % Cross-Reaction AAMU-Ab: competitive antigen ELISA, 0 = absence of inhibition or inhibition no higher than 40% at highest concentration tested (5×10^−3 M)
# Experimental: (§1) Buffers and water without additives are filtered through millipore filters and kept for 1 week. BSA, antibodies, Tween™ 20 and horse radish peroxidase conjugates are added to these buffers and water just prior to use. Urine samples are usually collected 4 hours after drinking a cup of coffee (instant or brewed with approximately 100 mg of caffeine per cup) and stored at −80° C. The urine samples are diluted 10 times with sodium phosphate buffer (620 mosm, pH 7.50) and are subsequently diluted with water to give concentrations of AAMU and 1X no higher than 3×10^−6 M in the ELISA. All the pipettings are done with an eight-channel pipette, except those of the antibody and sample solutions. Starting with the last well, 100 μL of a carbonate buffer (100 mM, pH 9.6) containing 2.5 μg mL-1 antibodies are added to each well. After 90 min. at room temperature, the wells are washed three times with […] of TPB: isotonic sodium phosphate buffer (310 mosm, pH 7.50) containing 0.05% Tween™ 20.
# (§2) After the initial wash, unoccupied sites are blocked by incubation for 90 min. at room temperature with 100 μL TBP containing 3% BSA. The wells are washed four times with 100 μL TPB. […] The microplate is gently shaken with an orbital shaker at room temperature for 3-4 hours. The wells are washed three times with 100 μL TPB containing 1% BSA and three times with water containing 0.05% Tween™ 20. To the washed plate is added 150 μL of a substrate buffer composed of citric acid (25 mM) and sodium phosphate dibasic buffer (50 mM, pH 5.0) containing 0.06% hydrogen peroxide and 0.04% o-phenylenediamine hydrochloride.
# (§3) Buffers and water without additives were filtered through millipore filters and kept for 1 week. BSA, antibodies, Tween™ 20 and horse radish peroxidase conjugates were added to these buffers and water just prior to use. Urine samples were usually collected 4 hours after drinking a cup of coffee (instant or brewed with approximately 100 mg of caffeine per cup) and stored at −80° C. They were diluted 10 times with sodium phosphate buffer (620 mosm, pH 7.50) and were subsequently diluted with water to give concentrations of AAMU and 1X no higher than 3×10^−6 M in the ELISA. All the pipettings were done with an eight-channel pipette, except those of the antibody and sample solutions. Starting with the last well, 100 μL of a carbonate buffer (100 mM, pH 9.6) containing 2.5 μg mL-1 antibodies was pipetted. After 90 min. at room temperature, the wells were washed three times with 100 μL of TPB: isotonic sodium phosphate buffer (310 mosm, pH 7.50) containing 0.05% Tween™ 20.
# (§4) After the initial wash, unoccupied sites were blocked by incubation for 90 min. at room temperature with 100 μL TBP containing 3% BSA. The wells were washed four times with 100 μL TPB. […] The microplate was gently shaken with an orbital shaker at room temperature for 3-4 hours. The wells were washed three times with 100 μL with TPB containing 1% BSA and three times with water containing 0.05% Tween™ 20. To the washed plate was added 150 μL of a substrate buffer composed of citric acid (25 mM) and sodium phosphate dibasic buffer (50 mM, pH 5.0) containing 0.06% hydrogen peroxide and 0.04% o-phenylenediamine hydrochloride. After 20 min. at room temperature with shaking, the reaction was stopped with 50 μL of 2.5 N HCl.
# (§5) The cross reactivities of AAMU-Ab and 1X-Ab were tested using a wide variety of caffeine metabolites and structural analogs (Table 5 below).
# [2] = system: 1X-Ab; experiment: Competitive antigen ELISA, cross-reactivity of 1X-Ab; assay type: binding, rabbit; details: for % Cross-Reaction 1X-Ab: competitive antigen ELISA, 0 = absence of inhibition or inhibition no higher than 40% at highest concentration tested (5×10^−3 M)
# Experimental: as §1, §2, §3, §4, §5
# [3] = cited from earlier work
"IC50 ([2]; read-out: concentration required for 50% inhibition in the competitive antigen ELISA, 1X-Ab) [µM]","IC50 ([1]; read-out: concentration required for 50% inhibition in the competitive antigen ELISA, AAMU-Ab) [µM]",SMILES,% Cross-Reaction AAMU-Ab [1],% Cross-Reaction 1X-Ab [2] [%],adverse reactions to dapsone ([3]; fast acetylators) [%],adverse reactions to dapsone ([3]; slow acetylators) [%]
–,–,"Cn1c(=O)[nH]c2[nH]c(=O)n(C)c2c1=O [1,7-Dimethyluric acid]",0%,0,–,–
–,–,"Cn1cnc2c1c(=O)[nH]c(=O)n2C [3,7-Dimethyl Xanthine (Theobromine), 3,7-Dimethyl Xanthine]",0%,0,–,–
–,–,Cn1c(=O)[nH]c(=O)c2[nH]cnc21 [3-Methyl Xanthine],0%,0,–,–
–,–,Nc1nc2nc[nH]c2c(=O)[nH]1 [Guanine],0%,0,–,–
–,–,CC(=O)Nc1c(N)[nH]c(=O)[nH]c1=O [5-Acetamino-6-amino-uracil],0.6%,0,–,–
–,–,"Cn1c(=O)c2c(ncn2C)n(C)c1=O [1,3,7-Trimethyl Xanthine (Caffeine), 1,3,7-Trimethyl Xanthine]",0%,0,–,–
–,–,O=c1[nH]c(=O)c2[nH]c(=O)[nH]c2[nH]1 [Uric acid],0%,0,–,–
–,–,Cn1cnc2[nH]c(=O)[nH]c(=O)c21 [7-Methyl Xanthine],0%,0,–,–
–,–,Cn1c(=O)[nH]c2[nH]c(=O)[nH]c2c1=O [1-Methyluric acid],0%,11,–,–
–,–,"Cn1c(=O)[nH]c2ncn(C)c2c1=O [1,7-Dimethyl Xanthine (Paraxanthine), 1,7-Dimethyl Xanthine]",0%,0.5,–,–
10,–,"Cn1c(=O)[nH]c2nc[nH]c2c1=O [1-Methyl Xanthine (1X), 1-Methyl Xanthine]",0%,100,–,–
–,–,O=c1[nH]cnc2nc[nH]c12 [Hypoxanthine],0%,0,–,–
–,–,"CC(=O)Nc1c(N)n(C)c(=O)n(C)c1=O [5-Acetamino-6-amino-1,3-dimethyluracil]",0%,0,–,–
–,1.5,CC(=O)Nc1c(N)n(C)c(=O)[nH]c1=O [5-Acetamino-6-amino-1-methyluracil],100%,0,–,–
–,–,Cc1nc2[nH]c(=O)[nH]c(=O)c2[nH]1 [8-Methyl Xanthine],0%,0,–,–
–,–,O=c1cc[nH]c(=O)[nH]1 [Uracil],0%,0,–,–
–,–,Nc1ccc(S(=O)(=O)c2ccc(N)cc2)cc1 [dapsone],–,–,17,46
–,–,"Cn1c(=O)c2[nH]cnc2n(C)c1=O [1,3-Dimethyl Xanthine (Theophylline), 1,3-Dimethyl Xanthine]",0%,0.2,–,–
–,–,O=c1[nH]c(=O)c2[nH]cnc2[nH]1 [Xanthine],0^a %,0,–,–

# Source: patent US20030072710A1, “Individualization of therapy with antidepressants” (McGill University, priority 2001, published 2003)
